We go through 1 substance from patent US6939855B2, “Anti-inflammatory compositions and method” (Elan Pharmaceuticals, Inc., priority 1997, dated 2005).

For this experiment, the system named is human neutrophils. Kind of experiment: Expression of alpha-9 integrin on human neutrophils following activation. Format: cell-based. The conditions noted are these: compared to isotype control marker (FIG. 2). Here is the method:
In this experiment, alpha-9 subunit, alpha-4 subunit and beta-1 subunit were measured after reacting human neutrophils with fluorescently labeled antibodies specifically reactive with each of the foregoing subunits.
Formyl-Met-Leu-Phe (fMLP) is an activation factor that is involved in inflammation. […] This increased expression is consistent with alpha-9 involvement in activation of neutrophils during inflammation.

Turning to Formyl-Met-Leu-Phe [fMLP], the “alpha-9 integrin expression following activation” value is “significantly and selectively increased”.
